For twelve compounds, IC50 results are on record in patent US10821115B2, “Compounds that inhibit Mcl-1 protein” (priority 2017, dated 2020).

The structures appear in SMILES notation. Read-outs that look alike come from different tables or passages of the source.

As usually defined, the IC50 is the point on the concentration scale where inhibition reaches its midpoint.

For assay [1], the system named is human multiple myeloma cell line, OPM-2. As to the kind of experiment: Cell viability assay (OPM-2 10 FBS), CellTiter-Glo. It is filed as cell-based. The essentials: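 OPM-2 cells at 3000 cells/well in RPMI 1640 with 10% FBS were exposed to serially diluted compounds for 16 h at 37 °C, 5% CO2.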
For orientation: In ATP-based viability assays light output follows the ATP content of the culture.

In assay [2] the target is recombinant human Mcl-1 (residues 171-327) / Bim interaction (Homo sapiens (Human), UniProt Q07820). As to the kind of experiment: biochemical. It is filed as binding. The conditions noted are these: read-out: Mcl-1 HTRF IC50.
Setting [3] is: Homo sapiens, OPM-2, 16 h, read-out: OPM-2 10% FBS IC50 IP, OPM-2 cells, 10% FBS, 16 h, CellTiter-Glo.
[4] abbreviates: TR-FRET, Mcl-1(171-327) / biotin-Bim (51-76).
[5] abbreviates: Homo sapiens, OPM-2, 16 h, read-out: OPM-2 10% FBS IC50 IP, OPM-2 cells, 10% FBS, 16 h incubation.
Setting [6] is: 0.1 nM Mcl-1(171-327), 0.05 nM biotin-Bim (51-76).

Chain of recombinant human Mcl-1 (residues 171-327) / Bim interaction (Q07820 171-327): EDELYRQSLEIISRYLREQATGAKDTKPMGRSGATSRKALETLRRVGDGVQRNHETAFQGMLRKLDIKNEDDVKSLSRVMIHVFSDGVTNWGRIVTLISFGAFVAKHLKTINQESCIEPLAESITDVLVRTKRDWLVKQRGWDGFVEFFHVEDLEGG

In the case of `CO[C@@]1([C@H](C)O)/C=C/C[C@H](C)[C@@H](C)S(=O)(=O)NC(=O)c2ccc3c(c2)N(C[C@@H]2CC[C@H]21)C[C@@]1(CCCc2cc(Cl)ccc21)CO3` (single isomer, unassigned) [Example 100486], the IC50 was 102 nM in assay [1] (setting [3]) and 0.381 nM in assay [2] (setting [4]).
In the same order, the values of `C[C@@H]1[C@@H](C)C/C=C/[C@@](O)(C#CCC2CCOCC2)[C@@H]2CC[C@H]2CN2C[C@@]3(CCCc4cc(Cl)ccc43)COc3ccc(cc32)C(=O)NS1(=O)=O` [Example 100432, (1S,3′R,6′R,7′S,8′E,11′S,12′R)-6-chloro-7′-hydroxy-11′,12′-dimethyl-7′-(3-(tetrahydro-2H-pyran-4-yl)-1-propyn-1-yl)-3,4-dihydro-2H,15′H-spiro[naphthalene-1,22′-[20]oxa[13]thia[1,14]diazatetracyclo [14.7.2.0~3,6~.0~19,24~]pentacosa[8,16,18,24]tetraen]-15′-one 13′,13′-dioxide] are 711 nM and 0.228 nM.
With `C[C@@H]1[C@@H](C)CCC[C@@](O)(CS(=O)(=O)N2CCN(C)CC2)[C@@H]2CC[C@H]2CN2C[C@@]3(CCCc4cc(Cl)ccc43)COc3ccc(cc32)C(=O)NS1(=O)=O` [Example 100139, (1S,3′R,6′R,7′S,11′S,12′R)-6-chloro-7′-hydroxy-11′,12′-dimethyl-7′-(((4-methyl-1-piperazinyl)sulfonyl)methyl)-3,4-dihydro-2H,15′H-spiro[naphthalene-1,22′-[20]oxa[13]thia[1,14]diazatetracyclo [14.7.2.0~3,6~.0~19,24~]pentacosa[16,18,24]trien]-15′-one 13′,13′-dioxide], the IC50 was 974 nM in assay [1] (read-out: OPM-2 10% FBS IC50 IP, OPM-2 cells, 10% FBS, 16 h, CellTiter-Glo) and 2.58 nM in assay [2] (setting [4]).
As to `C[C@@H]1[C@@H](C)CCC[C@@](O)(CC(=O)N2CCCC2)[C@@H]2CC[C@H]2CN2C[C@@]3(CCCc4cc(Cl)ccc43)COc3ccc(cc32)C(=O)NS1(=O)=O` [Example 100107, (1S,3′R,6′R,7′R,11′S,12′R)-6-chloro-7′-hydroxy-11′,12′-dimethyl-7′-(2-oxo-2-(1-pyrrolidinyl)ethyl)-3,4-dihydro-2H,15′H-spiro[naphthalene-1,22′-[20]oxa[13]thia[1,14]diazatetracyclo [14.7.2.0~3,6~.0~19,24~]pentacosa[16,18,24]trien]-15′-one 13′,13′-dioxide], the IC50 in assay [1] (setting [3]) was found to be 181 nM; in assay [2] (setting [4]), 0.296 nM.
For `COCC(COC)N1CCN(C[C@]2(OC)/C=C/C[C@H](C)[C@@H](C)S(=O)(=O)NC(=O)c3ccc4c(n3)N(C[C@@H]3CC[C@H]32)C[C@@]2(CCCc3cc(Cl)ccc32)CO4)CC1` [Example 371, (1S,3′R,6′R,7′S,8′E,11′S,12′R)-6-chloro-7′-methoxy-7′-((4-(2-methoxy-1-(methoxymethyl)ethyl)-1-piperazinyl)methyl)-11′,12′-dimethyl-3,4-dihydro-2H,15′H-spiro[naphthalene1,22′-[20]oxa[13]thia[1,14,25]triazatetracyclo [14.7.2.0~3,6~.0~19,24~]pentacosa[8,16,18,24]tetraen]-15′-one 13′,13′-dioxide], the IC50 in assay [1] (setting [5]) was 43 nM; in assay [2] (setting [6]), 0.101 nM.
Take `COCC[C@@H]1[C@@H](C)C/C=C/[C@@](CN2CCN(C(C)(C)C)CC2)(OC)[C@@H]2CC[C@H]2CN2C[C@@]3(CCCc4cc(Cl)ccc43)COc3ccc(cc32)C(=O)NS1(=O)=O` [Example 189, (1S,3′R,6′R,7′R,8′E,11′S,12′R)-7′-((4-tert-butyl-1-piperazinyl)methyl)-6-chloro-7′-methoxy-12′-(2-methoxyethyl)-11′-methyl-3,4-dihydro-2H,15′H-spiro[naphthalene-1,22′-[20]oxa[13]thia[1,14]diazatetracyclo [14.7.2.0~3,6~.0~19,24~]pentacosa[8,16,18,24]tetraen]-15′-one 13′,13′-dioxide]: the IC50 in assay [1] (setting [5]) came out at 33 nM; in assay [2] (setting [6]) it was 0.084 nM.
In the case of `CO[C@@]1(CN2CCN3CC[C@H](F)C[C@@H]3C2)/C=C/C[C@H](C)[C@@H](C)S(=O)(=O)NC(=O)c2ccc3c(c2)N(C[C@@H]2CC[C@H]21)C[C@@]1(CCCc2cc(Cl)ccc21)CO3` (single isomer, unassigned) [Example 283], the IC50 in assay [1] (read-out: OPM-2 10% FBS IC50 IP, OPM-2 cells, 10% FBS, 16 h incubation) was 839 nM; in assay [2] (setting [6]), 0.354 nM.
Turning to `CO[C@@]1(Cc2ncco2)/C=C/C[C@H](C)[C@@H](C)S(=O)(=O)NC(=O)c2ccc3c(c2)N(C[C@@H]2CC[C@H]21)C[C@@]1(CCCc2cc(Cl)ccc21)CO3` [Example 100508, (1S,3′R,6′R,7′S,8′E,11′S,12′R)-6-chloro-7′-methoxy-11′,12′-dimethyl-7′-(1,3-oxazol-2-ylmethyl)-3,4-dihydro-2H,15′H-spiro[naphthalene-1,22′-[20]oxa[13]thia[1,14]diazatetracyclo [14.7.2.0~3,6~.0~19,24~]pentacosa[8,16,18,24]tetraen]-15′-one 13′,13′-dioxide], the IC50 in assay [1] (setting [3]) worked out at 2500 nM; in assay [2] (setting [4]) it was 2.73 nM.
In the same order, the values of `C[C@@H]1[C@@H](C)C[C@H]2CCC[C@](O)(C2)[C@@H]2CC[C@H]2CN2C[C@@]3(CCCc4cc(Cl)ccc43)COc3ccc(cc32)C(=O)NS1(=O)=O` [Example 100062, (1S,3′R,6′R,7′S,11′R,13′S,14′R)-6-chloro-7′-hydroxy-13′,14′-dimethyl-3,4-dihydro-2H,17′H-spiro[naphthalene-1,24′-[22]oxa[15]thia[1,16]diazapentacyclo [16.7.2.1~7,11~.0~3,6~.0~21,26~]octacosa [18,20,26]trien]-17′-one 15′,15′-dioxide] are 9940 nM and 4.25 nM.
As for `CO[C@@]1(CN2CCN(C3CCC3)CC2)/C=C/C[C@H](C)[C@@H](C)S(=O)(=O)NC(=O)c2ccc3c(c2)N(C[C@@H]2CC[C@H]21)C[C@@]1(CCCc2cc(Cl)ccc21)CO3` [Example 281, (1S,3′R,6′R,7′S,8′E,11′S,12′R)-6-chloro-7′-((4-cyclobutyl-1-piperazinyl)methyl)-7′-methoxy-11′,12′-dimethyl-3,4-dihydro-2H,15′H-spiro[naphthalene-1,22′-[20]oxa[13]thia[1,14]diazatetracyclo [14.7.2.0~3,6~.0~19,24~]pentacosa[8,16,18,24]tetraen]-15′-one 13′,13′-dioxide], the IC50 was found to be 152 nM in assay [1] (setting [5]) and 0.181 nM in assay [2] (setting [6]).
Regarding `C[C@@H]1[C@@H](C)C/C=C/[C@](O)([C@@H](C)C(=O)OC(C)(C)C)[C@@H]2CC[C@H]2CN2C[C@@]3(CCCc4cc(Cl)ccc43)COc3ccc(cc32)C(=O)NS1(=O)=O` (single isomer, unassigned) [Example 100110], the figures for the IC50 in assay [1] (setting [3]) and in assay [2] (setting [4]) were 686 nM and 1.48 nM, respectively.
Regarding `CO[C@]1(CN2CCN3C(=O)[C@H](C)OC[C@@H]3C2)/C=C/C[C@H](C)[C@@H](C)S(=O)(=O)NC(=O)c2ccc3c(c2)N(C[C@@H]2CC[C@H]21)C[C@@]1(CCCc2cc(Cl)ccc21)CO3` [Example 142, (1S,3′R,6′R,7′R,8′E,11′S,12′R)-6-chloro-7′-methoxy-11′,12′-dimethyl-7′-(((3S,9aS)-3-methyl-4-oxohexahydropyrazino[2,1-c][1,4]oxazin-8(1H)-yl)methyl)-3,4-dihydro-2H,15′H-spiro[naphthalene-1,22′-[20]oxa[13]thia[1,14]diazatetracyclo [14.7.2.0~3,6~.0~19,24~]pentacosa[8,16,18,24]tetraen]-15′-one 13′,13′-dioxide], the values for the IC50 in assay [1] (setting [5]) and in assay [2] (setting [6]) were 174 nM and 0.157 nM, respectively.
